Some test systems named below: SK-MEL-28 melanoma; OVCAR-8 ovarian; HOP-62 NSCLC; MALME-3M melanoma; OVCAR-5 ovarian; SN12C renal; HOP-92 NSCLC; HCT-116 colon; M14 melanoma; OVCAR-4 ovarian.
Experiment in all cases: growth of human tumour cells (NCI), 48 h

SMILES strings stand for the structures.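 Grown in 96-well plates, cells were treated for 48 hours with each compound at five concentrations. Insufficient inhibition: endpoint recorded as highest concentration tested. Here, GI50 denotes the concentration required for 50% inhibition of growth. Definition used: TGI = concentration required for complete inhibition of growth.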 Bounds are passed on as bounds.

In the case of `CCCCCCCCCCCCCCCCC1=CC(=O)C=C(OC)C1=O`, the TGI in the assay on SK-MEL-28 melanoma, in the assay on OVCAR-8 ovarian, with HOP-62 NSCLC, in the assay with MALME-3M melanoma, in the assay on OVCAR-5 ovarian and with SN12C renal was above 100 µM in each case. The TGI with HOP-92 NSCLC, in the assay with HCT-116 colon, in the assay with M14 melanoma and with OVCAR-4 ovarian was above 100 µM each time.
On to `CC[O-].CC[O-].[O-]c1ccccc1C=Nc1ccccc1.[O-]c1ccccc1C=Nc1ccccc1.[Ti+4]`, for which the GI50 in the assay with SK-MEL-28 melanoma is above 100 µM; in the assay on OVCAR-8 ovarian, 97.3 µM; with HOP-62 NSCLC, above 100 µM; in the assay with MALME-3M melanoma, above 100 µM; in the assay with OVCAR-5 ovarian it was above 100 µM; in the assay on SN12C renal, above 100 µM. Moreover, the GI50 with HOP-92 NSCLC is above 100 µM; with HCT-116 colon, 31.8 µM; in the assay on M14 melanoma, above 100 µM; with OVCAR-4 ovarian, above 100 µM. The TGI with SK-MEL-28 melanoma, with OVCAR-8 ovarian, in the assay with HOP-62 NSCLC, in the assay with MALME-3M melanoma, in the assay on OVCAR-5 ovarian and with SN12C renal was above 100 µM in each case. The TGI with HOP-92 NSCLC, in the assay on HCT-116 colon, in the assay with M14 melanoma and in the assay with OVCAR-4 ovarian was above 100 µM each time.
As for `C[C@]12CCC[C@H](OC=O)C1(O)C[C@H](C(=O)O)CC2` (some centres not stated), the TGI in the assay on SK-MEL-28 melanoma, with OVCAR-8 ovarian, in the assay with HOP-62 NSCLC, in the assay on MALME-3M melanoma, in the assay with OVCAR-5 ovarian and in the assay with SN12C renal was above 100 µM throughout. For the same molecule, the TGI with HOP-92 NSCLC, in the assay with HCT-116 colon, in the assay with M14 melanoma and in the assay with OVCAR-4 ovarian was above 100 µM throughout.
Consider `COc1cc2[nH]c(C(=O)c3cc(OC)c(OC)c(OC)c3)c(N)c2cc1C#CCO`, for which the GI50 is 0.896 µM in the assay on SK-MEL-28 melanoma; 0.533 µM in the assay with OVCAR-8 ovarian; 0.322 µM with HOP-62 NSCLC; 0.143 µM in the assay on MALME-3M melanoma; 3.63 µM with OVCAR-5 ovarian; 1.4 µM with SN12C renal. Moreover, the GI50 is 0.0862 µM in the assay with HOP-92 NSCLC, 0.298 µM in the assay on HCT-116 colon and 0.528 µM in the assay on OVCAR-4 ovarian. Moreover, the TGI was above 100 µM with SK-MEL-28 melanoma; above 100 µM in the assay on OVCAR-8 ovarian; above 100 µM in the assay on HOP-62 NSCLC; above 100 µM in the assay on MALME-3M melanoma; above 100 µM with OVCAR-5 ovarian; 98.3 µM in the assay on SN12C renal. Also, the TGI in the assay on HOP-92 NSCLC is 90.7 µM; with HCT-116 colon it was above 100 µM; in the assay on OVCAR-4 ovarian, above 100 µM.
Turning to `CN1CCC23c4c5ccc(O)c4OC2C(=NN=C2CCC4(O)C6Cc7ccc(O)c8c7C4(CCN6C)C2O8)CCC3(O)C1C5` (configuration not stated), the TGI with SK-MEL-28 melanoma, in the assay on OVCAR-8 ovarian, with HOP-62 NSCLC, in the assay with MALME-3M melanoma, in the assay with OVCAR-5 ovarian and in the assay with SN12C renal was above 100 µM in each case. Further, the TGI in the assay with HOP-92 NSCLC, with M14 melanoma and with OVCAR-4 ovarian was above 100 µM each time.
As for `CCC1CCc2nc3sc(C(=O)Nc4ccccc4F)c(N)c3cc2C1` (configuration not stated), the GI50 in the assay with SK-MEL-28 melanoma is 11.3 µM; in the assay on OVCAR-8 ovarian, above 100 µM; in the assay on HOP-62 NSCLC, above 100 µM; in the assay on MALME-3M melanoma, 3.55 µM; in the assay on OVCAR-5 ovarian it was 22.8 µM; with SN12C renal, above 100 µM. The GI50 was 4 µM in the assay with HOP-92 NSCLC, 1.36 µM with HCT-116 colon and above 100 µM in the assay on OVCAR-4 ovarian. Further, the TGI in the assay on SK-MEL-28 melanoma, with OVCAR-8 ovarian, in the assay on HOP-62 NSCLC, in the assay on MALME-3M melanoma, with OVCAR-5 ovarian and in the assay with SN12C renal was above 100 µM throughout. The TGI in the assay on HOP-92 NSCLC, with HCT-116 colon and with OVCAR-4 ovarian was above 100 µM each time.
As to `CON(C)C(=O)C(Cc1ccccc1)NC(=O)OC(C)(C)C` (configuration not stated), the TGI in the assay on SK-MEL-28 melanoma, in the assay on OVCAR-8 ovarian, in the assay with HOP-62 NSCLC, in the assay on MALME-3M melanoma, in the assay on OVCAR-5 ovarian and in the assay on SN12C renal was above 100 µM each time. The TGI with HOP-92 NSCLC, in the assay on HCT-116 colon and with M14 melanoma was above 100 µM each time.
As for `CC1(C)CCC(=O)c2c(O)ccc(O)c21`, the TGI in the assay on SK-MEL-28 melanoma is above 100 µM; in the assay on OVCAR-8 ovarian it was above 100 µM; with MALME-3M melanoma, above 100 µM; in the assay with OVCAR-5 ovarian, above 100 µM; with SN12C renal it was above 100 µM; in the assay on HOP-92 NSCLC, 76.9 µM. For the same molecule, the TGI in the assay on HCT-116 colon and with OVCAR-4 ovarian was above 100 µM throughout.
In the case of `O=C1C(=O)c2cc([N+](=O)[O-])ccc2-c2ccccc21`, the GI50 was 1.73 µM in the assay with SK-MEL-28 melanoma; 1.71 µM in the assay on OVCAR-8 ovarian; 1.77 µM with MALME-3M melanoma; 1.82 µM in the assay on OVCAR-5 ovarian; 1.66 µM with SN12C renal; 1.66 µM in the assay with HOP-92 NSCLC. Besides, the values for the GI50 in the assay with HCT-116 colon, in the assay with M14 melanoma and in the assay on OVCAR-4 ovarian were 1.43 µM, 1.97 µM and 1.25 µM, respectively. Further, the TGI was determined as 3.11 µM in the assay on SK-MEL-28 melanoma; 3.6 µM in the assay with OVCAR-8 ovarian; 3.4 µM in the assay with MALME-3M melanoma; 3.36 µM in the assay on OVCAR-5 ovarian; 3.05 µM in the assay with SN12C renal; 3.12 µM in the assay on HOP-92 NSCLC. The TGI in the assay on HCT-116 colon turned out to be 2.82 µM; in the assay on M14 melanoma, 3.5 µM; in the assay with OVCAR-4 ovarian, 2.66 µM.
`CC[C@H](C)c1occ2c(O)c(C(=O)O)c(=O)cc-2c1C`: the TGI with OVCAR-8 ovarian worked out at 41.4 µM; in the assay with HOP-62 NSCLC it was 69.1 µM; in the assay on MALME-3M melanoma it was 37.7 µM; in the assay on OVCAR-5 ovarian it was 36.7 µM; in the assay with SN12C renal it was 81.4 µM; with HOP-92 NSCLC, 49.6 µM. Further, the TGI in the assay with HCT-116 colon is 41.5 µM; with M14 melanoma it was above 100 µM; in the assay on OVCAR-4 ovarian it was 68.2 µM.
Regarding `CCCCCCCCCOC(=S)NC`, the TGI in the assay with SK-MEL-28 melanoma is 58.5 µM; with OVCAR-8 ovarian, 44.9 µM; in the assay on MALME-3M melanoma it was 43.8 µM; in the assay with OVCAR-5 ovarian, 38.1 µM; in the assay on SN12C renal it was 36.9 µM; in the assay with HOP-92 NSCLC, 42.5 µM. The results for the TGI with M14 melanoma and in the assay on OVCAR-4 ovarian were 45.8 µM and 42.2 µM, respectively.

For the origin of these results see PubChem BioAssay (NCI).
